Legend:
uOR [1] = biological target: T1, uOR (Mus musculus, UniProt P42866); test: β-arrestin recruitment to uOR / receptor internalization; assay type: cell-based; design: expressed in transfected cells; conditions: for Max Fold Efficacy: maximum signal/background ratio for uOR receptor internalization at the EC50; for EC50: recruitment of beta-arrestin to interact with uOR, bound given in μM, read-out: β-arrestin Recruitment EC50 ± SEM
Excerpt: The data provided in Tables 1A and 1B below were obtained using standard analytical techniques known to those skilled in the art. Such techniques are described in detail in C.
[…] were transiently transfected (electroporation) with combinations of cDNA for hemagglutinin (HA-N terminus)-tagged uOR, beta-arrestin2 tagged with green fluorescent protein, mouse uOR tagged at the C terminus with yellow fluorescent protein and GRK-2. […] After addition of drug, cells were visualized using confocal microscopy. Multiple cells were recorded per dish after more than four separate transfection experiments—representative cells are shown in the manuscript.
The “β-arrestin Recruitment EC50±SEM” column in Table 2 below represents the degree to which each tested compound recruited beta-arrestin to interact with uOR. As will be appreciated by those skilled in the art, EC50 refers to the concentration of a drug which induces a response halfway between the baseline and maximum after a specified exposure time. In this instance, lower values indicate greater potency of the molecule, and this is […].
As will also be understood by those skilled in the art, “Max Fold Efficacy” refers to the maximum signal/background ratio that an agonist will induce or, conversely, that an antagonist will inhibit an agonist from inducing a response. In Table 2 below, the “Max Fold Efficacy” column indicates the strength of the signal increase over the control/background measurement for uOR receptor internalization at the E.C. 50.

uOR [2] = biological target: T1, uOR; test: Agonist induced ERK 1/2 phosphorylation (efficacy and potency relative to DAMGO)

T1 sequence (P42866 whole entry): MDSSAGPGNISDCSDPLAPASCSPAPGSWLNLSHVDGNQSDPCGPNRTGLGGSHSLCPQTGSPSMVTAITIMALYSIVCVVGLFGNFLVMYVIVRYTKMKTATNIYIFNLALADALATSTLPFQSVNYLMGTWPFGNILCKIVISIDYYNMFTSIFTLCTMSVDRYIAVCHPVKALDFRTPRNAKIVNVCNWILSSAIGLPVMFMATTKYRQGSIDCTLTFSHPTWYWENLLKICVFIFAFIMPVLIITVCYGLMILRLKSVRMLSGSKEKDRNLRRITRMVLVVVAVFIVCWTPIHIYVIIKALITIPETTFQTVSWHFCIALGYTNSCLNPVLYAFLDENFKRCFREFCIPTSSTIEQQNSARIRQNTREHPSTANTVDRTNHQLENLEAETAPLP

Row | SMILES | Max Fold Efficacy (uOR [1]) | EC50 (uOR [1]) [µM] | EC50 (uOR [2]) [nM]
1 | COC(=O)[C@@H]1C[C@H](OC(=O)c2cnc(C)nc2)C(=O)[C@H]2[C@@]1(C)CC[C@H]1C(=O)O[C@H](c3ccoc3)C[C@]21C [Formula Id-i] | 4.2 | > 10 | 2.85
2 | COC(=O)[C@@H]1C[C@H](OC(=O)Nc2ccc(SC(F)(F)F)cc2)C(=O)[C@H]2[C@@]1(C)CC[C@H]1C(=O)O[C@H](c3ccoc3)C[C@]21C |  | > 10 | 2300
3 | COC(=O)[C@@H]1C[C@H](OC(=O)Nc2ccc(Cl)c(Cl)c2)C(=O)[C@H]2[C@@]1(C)CC[C@H]1C(=O)O[C@H](c3ccoc3)C[C@]21C |  | > 10 | 1850
4 | CCc1ncc(C(=O)O[C@H]2C[C@@H](C(=O)OC)[C@]3(C)CC[C@H]4C(=O)O[C@H](c5ccoc5)C[C@]4(C)[C@H]3C2=O)cn1 | 5.1 | > 10 | 917
5 | COC(=O)[C@@H]1C[C@H](OC(=O)c2ccc(Cl)nc2)C(=O)[C@H]2[C@@]1(C)CC[C@H]1C(=O)O[C@H](c3ccoc3)C[C@]21C [Formula Id-ii] | 9.3 | > 10 | 373
6 | COC(=O)[C@@H]1C[C@H](NC(=O)Nc2ccc(C#N)cc2)C(=O)[C@H]2[C@@]1(C)CC[C@H]1C(=O)O[C@H](c3ccoc3)C[C@]21C |  | > 10 | 4290
7 | CCc1ncc(NC(=O)O[C@H]2C[C@@H](C(=O)OC)[C@]3(C)CC[C@H]4C(=O)O[C@H](c5ccoc5)C[C@]4(C)[C@H]3C2=O)cn1 |  | > 10 | 7460
8 | COC(=O)[C@@H]1C[C@H](OC(=O)Nc2ccc(F)c(F)c2)C(=O)[C@H]2[C@@]1(C)CC[C@H]1C(=O)O[C@H](c3ccoc3)C[C@]21C [Formula Ia-vii] | 2.2 | > 10 | 412
9 | COC(=O)[C@@H]1C[C@H](OC(=O)Nc2ccc(OC(F)F)cc2)C(=O)[C@H]2[C@@]1(C)CC[C@H]1C(=O)O[C@H](c3ccoc3)C[C@]21C [Formula Ia-v] | 9.5 | > 10 | 162
10 | COC(=O)[C@@H]1C[C@H](OC(=O)c2ccc(OC)cc2)C(=O)[C@H]2[C@@]1(C)CC[C@H]1C(=O)O[C@H](c3ccoc3)C[C@]21C | 3.1 | > 10 | 3500
11 | COC(=O)[C@@H]1C[C@H](OC(=O)Nc2ccc(Cl)cc2)C(=O)[C@H]2[C@@]1(C)CC[C@H]1C(=O)O[C@H](c3ccoc3)C[C@]21C [Formula Ia-iii] | 7.6 | > 10 | 146
12 | COC(=O)[C@@H]1C[C@H](OC(=O)Nc2cc(C)on2)C(=O)[C@H]2[C@@]1(C)CC[C@H]1C(=O)O[C@H](c3ccoc3)C[C@]21C [Formula Ic-v] | 2.4 | > 10 | 118
13 | COC(=O)[C@@H]1C[C@H](OC(=O)c2ccc(F)cc2)C(=O)[C@H]2[C@@]1(C)CC[C@H]1C(=O)O[C@H](c3ccoc3)C[C@]21C | 2.2 | > 10 | 1640
14 | COC(=O)[C@@H]1C[C@H](OC(=O)Nc2nc(C)cs2)C(=O)[C@H]2[C@@]1(C)CC[C@H]1C(=O)O[C@H](c3ccoc3)C[C@]21C [Formula Ic-ii] | 3.8 | > 10 | 25.2
15 | COC(=O)[C@@H]1C[C@H](OC(=O)c2nc(C)co2)C(=O)[C@H]2[C@@]1(C)CC[C@H]1C(=O)O[C@H](c3ccoc3)C[C@]21C |  | > 10 | 5990
16 | COC(=O)[C@@H]1C[C@H](OC(=O)Nc2ccc(F)cc2)C(=O)[C@H]2[C@@]1(C)CC[C@H]1C(=O)O[C@H](c3ccoc3)C[C@]21C [Formula Ia-iv] | 4.3 | > 10 | 156
17 | COC(=O)[C@@H]1C[C@H](OC(=O)Nc2ccc(Cl)cc2F)C(=O)[C@H]2[C@@]1(C)CC[C@H]1C(=O)O[C@H](c3ccoc3)C[C@]21C [Formula Ia-viii] | 2.3 | > 10 | 522
18 | COC(=O)[C@@H]1C[C@H](OC(=O)Nc2ncc(C)s2)C(=O)[C@H]2[C@@]1(C)CC[C@H]1C(=O)O[C@H](c3ccoc3)C[C@]21C |  | > 10 | 1280
